Assay results: ChEMBL document CHEMBL4433219, “EC18 as a Tool To Understand the Role of HCN4 Channels in Mediating Hyperpolarization-Activated Current in Tissues” (ACS Med Chem Lett, 2019)
pEC50: −log10 of the molar value.

Assays:
[1] = target: T1, Potassium/sodium hyperpolarization-activated cyclic nucleotide-gated channel 4 (Homo sapiens) (UniProt Q9Y3Q4); test: Inhibition of human HCN4 expressed in HEK293 cells assessed as reduction in hyperpolarization activated current at 5 uM at holding potential of -80 mV by patch clamp assay relative to control; format: cell-based
T1 sequence (whole entry): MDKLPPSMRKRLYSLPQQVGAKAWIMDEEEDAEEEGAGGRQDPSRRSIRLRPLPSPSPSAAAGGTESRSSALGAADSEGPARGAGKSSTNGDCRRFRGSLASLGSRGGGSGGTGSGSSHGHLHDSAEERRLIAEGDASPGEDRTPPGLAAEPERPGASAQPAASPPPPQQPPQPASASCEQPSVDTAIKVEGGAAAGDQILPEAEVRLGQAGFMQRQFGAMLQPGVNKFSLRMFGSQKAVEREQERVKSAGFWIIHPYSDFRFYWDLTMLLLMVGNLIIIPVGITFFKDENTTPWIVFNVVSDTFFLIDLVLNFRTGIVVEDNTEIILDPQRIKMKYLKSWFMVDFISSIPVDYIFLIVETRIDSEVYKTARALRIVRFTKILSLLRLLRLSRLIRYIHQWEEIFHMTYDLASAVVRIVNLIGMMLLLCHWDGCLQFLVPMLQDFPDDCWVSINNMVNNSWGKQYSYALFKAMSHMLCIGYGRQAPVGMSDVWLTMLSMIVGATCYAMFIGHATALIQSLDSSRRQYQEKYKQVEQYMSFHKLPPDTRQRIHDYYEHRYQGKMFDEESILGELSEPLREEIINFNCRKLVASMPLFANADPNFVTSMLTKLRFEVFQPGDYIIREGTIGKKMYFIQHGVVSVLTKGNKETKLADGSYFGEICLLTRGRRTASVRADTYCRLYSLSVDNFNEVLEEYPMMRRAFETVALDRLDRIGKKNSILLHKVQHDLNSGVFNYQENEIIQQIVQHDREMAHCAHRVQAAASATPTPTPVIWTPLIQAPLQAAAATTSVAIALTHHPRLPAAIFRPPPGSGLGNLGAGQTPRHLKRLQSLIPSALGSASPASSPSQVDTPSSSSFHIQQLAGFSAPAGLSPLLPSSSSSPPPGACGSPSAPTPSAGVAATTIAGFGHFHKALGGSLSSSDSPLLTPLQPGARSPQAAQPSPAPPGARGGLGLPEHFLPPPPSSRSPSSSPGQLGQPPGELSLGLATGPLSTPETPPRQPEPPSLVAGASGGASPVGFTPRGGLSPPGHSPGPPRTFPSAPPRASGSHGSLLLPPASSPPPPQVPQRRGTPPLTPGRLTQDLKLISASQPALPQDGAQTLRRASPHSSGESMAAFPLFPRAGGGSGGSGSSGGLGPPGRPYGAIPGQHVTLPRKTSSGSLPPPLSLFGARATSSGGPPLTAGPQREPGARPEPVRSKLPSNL

[2] = target: T2, Potassium/sodium hyperpolarization-activated cyclic nucleotide-gated channel 4 (Homo sapiens, UniProt Q9Y3Q4); test: Inhibition of human HCN4 expressed in HEK293 cells assessed as reduction in hyperpolarization activated current at holding potential of -80 mV by patch clamp assay; format: cell-based
T2 sequence (Q9Y3Q4 whole entry): T1 sequence (whole entry)

[3] = tested on: Cardiac muscle of left ventricle; test: Effect on cardiac electrophysiological profile in Mongrel perfused dog heart left ventricular muscle stimulated at basic cycle length of 1000 milliseconds assessed as action potential time duration at 50% of repolarization at 1 uM measured after 25 mins by glass capillary microelectrode based electrophysiology assay (reference value: 176 +/- 16.36 milliseconds); format: functional, Canis lupus familiaris
[4] = organism: Cavia porcellus; test: Inhibition of HCN4 in guinea pig single sinoatrial node assessed as reduction in hyperpolarization activated current at 10 uM at holding potential of -120 mV by patch clamp assay relative to control

- inhibition [1]: 59%
- pEC50 [2]: 5.40
- inhibition [4]: 67%
SMILES: COc1ccc(CCN(C)[C@@H]2CCC[C@H](N3CCc4cc(OC)c(OC)cc4CC3=O)C2)cc1OC (racemic)
- Time [3]: 168.3 ms
